In publication PMC5602538, “Assessment of the Drug Interaction Potential of Unconjugated and GalNAc3-Conjugated 2′-MOE-ASOs” (Molecular Therapy. Nucleic Acids, 2017):
{GalNAc3} = trishexylamino-C6 triantennary GalNAc conjugate; e = 2'-O-(2-methoxyethyl) (MOE); d = 2'-deoxy (DNA)

Experiments:
CYP1A2 [1] = target: T1, CYP1A2 (Homo sapiens, UniProt P05177); assay: CYP1A2 inhibition in cryopreserved human hepatocyte suspensions (phenacetin probe); assay type: in vitro ADME; conditions: human hepatocytes
T1 construct: Human hepatocytes (pooled from 5 donors); host or cells: cryopreserved human hepatocytes in suspension, pooled from 5 donors
Description: Preincubations were performed in 50 μL of Williams’ Medium E with 2 mM salicylamide. The salicylamide was included to reduce possible phase II conjugation to the precursor phase I metabolites. […] Human hepatocytes (pooled from 5 donors) were thawed and prepared according to the vendor’s protocol. […] Incubations were carried out at 37°C with 5% CO2. The incubation time was 45 min for phenacetin, diclofenac, dextromethorphan, midazolam, bupropion, chlorzoxazone, and testosterone and 90 min for paclitaxel and (S)-mephenytoin. The reactions were stopped by adding 200 μL of ice-cold acetonitrile (can) with tolbutamide (100 ng/mL) as the internal standard to 100 μL of hepatocyte suspension (1:2, v/v). The 96-well plate was then vortexed at 1,700 rpm for 3 min and centrifuged at 3,500 rpm for 10 min at 20°C. The supernatants were analyzed using liquid chromatography-tandem MS (LC-MS/MS).

CYP1A2 [2] = assay: CYP1A2 enzyme activity induction in plated human hepatocytes; conditions: ASO 100 μM, human hepatocytes 72 hr, vs PBS 1% vehicle, mean ± SD of triplicate
Description: Upon receipt, sandwich-cultured cryopreserved human hepatocytes (with Matrigel) plated on collagen-coated 24-well plates were inspected under a microscope for general morphology and viability. Fresh culture medium (OptiCulture Hepatocyte Media) was added to each plate that passed the visual inspection. The plates were then placed in an incubator set to 37°C with 5% carbon dioxide (CO2) for overnight acclimation. […] During this time, cells in parallel wells were also treated with 50.0 μM omeprazole (inducer of CYP1A2), 1,000 μM phenobarbital (inducer of CYP2B6), or 10.0 μM rifampicin (inducer of CYP3A4) in triplicate, respectively.
The plates were then incubated at 37°C with 5% CO2 for 60 min. […] Aliquots of the supernatants were analyzed by LC-MS/MS for the formation of acetaminophen, hydroxyl-bupropion, or hydroxyl-midazolam as markers for enzyme activity of CYP1A2, CYP2B6, and CYP3A4, respectively.
The activity of each CYP enzyme was measured by comparing the peak area ratio of the corresponding product to the peak area ratio of the internal standard. The fold induction was calculated by dividing the peak area ratio of each individual well from the treatment group by the mean of the peak area ratios obtained from the vehicle control wells. […] The ΔCƬ was calculated as follows: ΔCƬ = CƬ (CYP) − CƬ (GAPDH). […] The ΔΔCƬ was calculated as follows: ΔΔCƬ = Δ CƬ (Treatment) − Δ CƬ (Vehicle). […]

OAT3 = system: T2, OAT3; assay: OAT3 inhibition study in MDCK cells; assay type: in vitro ADME; conditions: 100 μM ASO, 10 μM p-aminohippurate
T2 construct: expressed in transfected cells; host or cells: MDCK-II
Description: A 96-well cell culture plate containing a monolayer of MDCK-II cells grown on a permeable support and a corresponding receiver tray was used. The basolateral compartment of the culture plate and wells were washed with warm HBSS three times, with wells of the culture plate serving as the apical compartment. The wash was aspirated by adding 150 μL of 37°C HBSS to both compartments. […] The pre-incubation buffer from both compartments was aspirated and 150 μL of the following was added to the basal compartment. […] OATP1B1, 2 μM [^3H]-estradiol-17 β-D-glucuronide; and OATP1B3, 2 μM [^3H]-cholecystokinin octapeptide (CCK-8). […] Plates were incubated at 37°C with orbital shaking at 60 rpm for 5 min. Both sides of the permeable support were washed four times with ice-cold PBS and 60 μL of cell extraction solution was added to each well. Plates were agitated for 15 min at 120 rpm, after which a 30-μL sample of the extract was collected. […] Test article concentrations, including control samples, were evaluated by an LC-MS method. Signal to noise for probe substrates was calculated by dividing the uptake of the probe substrate in transporter-expressing cells by the uptake of probe substrate in control cells not expressing the transporter of interest.

OATP1B3 = system: T3, OATP1B3; assay: OATP1B3 inhibition study in MDCK cells; assay type: in vitro ADME; conditions: 100 μM ASO, 2 μM CCK-8
T3 construct: expressed in transfected cells; host or cells: MDCK-II
Description: A 96-well cell culture plate containing a monolayer of MDCK-II cells grown on a permeable support and a corresponding receiver tray was used. The basolateral compartment of the culture plate and wells were washed with warm HBSS three times, with wells of the culture plate serving as the apical compartment. The wash was aspirated by adding 150 μL of 37°C HBSS to both compartments. Plates were incubated at 37°C with orbital shaking at 60 rpm for 15 min for OAT1, OAT3, OCT1, OCT2, OATP1B1, and OATP1B3 (±5 min). The pre-incubation buffer from both compartments was aspirated and 150 μL of the following was added to the basal compartment. […] Samples containing probe substrate were added to 200 μL of scintillation fluid and counted on a 1450 Microbeta (PerkinElmer), whereas samples containing the test article were kept frozen. Test article concentrations, including control samples, were evaluated by an LC-MS method.
Signal to noise for probe substrates was calculated by dividing the uptake of the probe substrate in transporter-expressing cells by the uptake of probe substrate in control cells not expressing the transporter of interest. […]

T1 sequence (P05177 whole entry): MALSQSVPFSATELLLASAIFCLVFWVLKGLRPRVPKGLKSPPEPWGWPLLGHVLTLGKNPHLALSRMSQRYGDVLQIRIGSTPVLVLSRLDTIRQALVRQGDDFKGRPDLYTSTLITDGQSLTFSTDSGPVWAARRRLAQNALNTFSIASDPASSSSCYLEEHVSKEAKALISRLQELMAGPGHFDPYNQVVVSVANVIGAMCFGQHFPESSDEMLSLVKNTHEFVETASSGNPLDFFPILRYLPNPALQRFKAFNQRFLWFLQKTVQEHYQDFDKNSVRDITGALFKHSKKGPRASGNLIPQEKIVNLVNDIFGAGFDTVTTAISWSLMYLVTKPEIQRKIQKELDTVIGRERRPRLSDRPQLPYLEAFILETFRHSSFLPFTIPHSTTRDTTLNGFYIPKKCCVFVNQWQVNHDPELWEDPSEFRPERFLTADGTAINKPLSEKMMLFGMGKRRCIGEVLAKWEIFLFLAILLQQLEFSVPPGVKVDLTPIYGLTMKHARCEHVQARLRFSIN

ISIS 304801: 20-mer (5-10-5) 2′-MOE gapmer PS backbone antisense inhibitor of apoC-III, sequence AGCTTCTTGTCCAGCTTTAT (sugars from the 5' end e5 d10 e5, all phosphorothioate, methylation of C not given here)
IC50 (CYP1A2 [1]): > 100 µM

ISIS 420915: 20-mer 2′-MOE gapmer PS backbone antisense inhibitor of transthyretin, sequence TCTTGGTTACATGAAATCCC (all phosphorothioate, sugars by position and methylation of C not given here; 2'-MOE gapmer)
IC50 (CYP1A2 [1]): > 100 µM

ISIS 681257: 20-mer 2′-MOE gapmer PS/PO mixed backbone ASO conjugated to 5′-trishexylamino GalNAc3, targets Lp(a), sequence TGCTCCGTTGGTGCTTGTTC (5' {GalNAc3}, sugars by position and backbone not given here; 2'-MOE gapmer with mixed PS/PO backbone)
Fold induction of CYP1A2 enzyme activity (CYP1A2 [2]): 1.40 ± 0.116 fold
Enhancement of probe substrate uptake, OAT3 (OAT3): 18.2%
Enhancement of probe substrate uptake, OATP1B3 (OATP1B3): 38.3%
